The numbers were not newly measured in patent publication US20240196931A1, “BOTANICAL SUPPLEMENT AND METHOD FOR PREVENTING DISEASES, PROMOTING GROWTH AND SURVIVAL OF AN ANIMAL BY USING THE SAME” (ACADEMIA SINICA, priority 2022, published 2024), which cites them from elsewhere.

SMILES strings stand for the structures.

One data set has as its system sepsis. Conditions: sepsis induced by endotoxin or cecal ligation puncture.
The test system of data set [1] is melanoma and breast cancer cell metastasis. Conditions: in vitro and in xenograft or allograft mouse tumor models.

As to `CC/C=C\C/C=C\C/C=C\CCCCCCCC(=O)OC[C@H](CO[C@@H]1O[C@H](CO)[C@H](O)[C@H](O)[C@H]1O)OC(=O)CCCCCCC/C=C\C/C=C\C/C=C\CC` [dLGG, 1,2-di-O-α-linolenoyl-3-O-β-galactopyranosyl-sn-glycerol], in the data set with sepsis, the “Effect against sepsis in mouse” value was “preventive and therapeutic effect”. For the same compound, the “Effect on melanoma and breast cancer cell metastasis” value in data set [1] was “suppressive effects”.
